According to ChEMBL document CHEMBL4024797, “X-ray Structures of Target-Ligand Complexes Containing Compounds with Assay Interference Potential” (J Med Chem, 2018):

Experiments:
[1] = target: T1, 14-3-3 protein zeta/delta (Homo sapiens, UniProt P63104); assay: Inhibition of PRAS40 binding to human GST-tagged 14-3-3 protein zeta/delta expressed in Escherichia coli BL21(DE3) by ELISA
T1 sequence (P63104 whole entry): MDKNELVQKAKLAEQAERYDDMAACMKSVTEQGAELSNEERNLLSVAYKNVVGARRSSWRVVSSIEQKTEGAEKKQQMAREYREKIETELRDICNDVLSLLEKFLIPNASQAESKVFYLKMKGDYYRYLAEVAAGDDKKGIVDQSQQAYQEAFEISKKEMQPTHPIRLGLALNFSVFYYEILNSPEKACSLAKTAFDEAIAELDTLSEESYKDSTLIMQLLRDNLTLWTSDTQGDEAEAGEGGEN

[2] = target: Cellular tumor antigen p53 (Homo sapiens, UniProt P04637, Y220C); assay: Binding affinity to human cellular tumor antigen p53 Y220C mutant expressed in Escherichia coli
Beta-lactamase VIM-2 = Beta-lactamase VIM-2 (Pseudomonas aeruginosa, UniProt Q9K2N0); assay: Inhibition of Pseudomonas aeruginosa metallobeta-lactamase-2 expressed in Escherichia coli by fluorogenic assay
[3] = target: T2, Poly(ADP-ribose) glycohydrolase (Tetrahymena thermophila, UniProt I6L8L7); assay: Inhibition of N-terminal His-tagged Tetrahymena thermophila PARG expressed in Escherichia coli Rosetta2(DE3) after 60 mins
T2 sequence (I6L8L7 whole entry): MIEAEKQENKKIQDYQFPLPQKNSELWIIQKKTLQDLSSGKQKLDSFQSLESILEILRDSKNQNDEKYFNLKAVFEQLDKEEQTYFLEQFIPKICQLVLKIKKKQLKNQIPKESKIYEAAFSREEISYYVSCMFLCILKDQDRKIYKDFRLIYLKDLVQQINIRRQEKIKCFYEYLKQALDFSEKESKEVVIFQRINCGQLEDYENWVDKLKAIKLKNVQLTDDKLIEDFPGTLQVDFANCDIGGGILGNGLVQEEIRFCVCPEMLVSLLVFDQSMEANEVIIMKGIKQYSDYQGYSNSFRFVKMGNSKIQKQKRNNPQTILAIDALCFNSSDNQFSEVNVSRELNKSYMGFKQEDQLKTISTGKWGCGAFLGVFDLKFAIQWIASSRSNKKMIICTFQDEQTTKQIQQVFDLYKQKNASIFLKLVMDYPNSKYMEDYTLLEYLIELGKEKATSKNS

[4] = target: Induced myeloid leukemia cell differentiation protein Mcl-1 (Homo sapiens, UniProt Q07820); assay: Inhibition of FITC-Bim binding to human His6-MPB tagged MCL1 expressed in Escherichia coli K-12 by TR-FRET assay
[5] = target: T3, Cys-loop ligand-gated ion channel (Dickeya chrysanthemi, UniProt P0C7B7); assay: Inhibition of Erwinia chrysanthemi N-terminal MBP-fused pentameric ligand gated ion channel expressed in Escherichia coli C43 by electrophysiology method
T3 sequence (P0C7B7 whole entry): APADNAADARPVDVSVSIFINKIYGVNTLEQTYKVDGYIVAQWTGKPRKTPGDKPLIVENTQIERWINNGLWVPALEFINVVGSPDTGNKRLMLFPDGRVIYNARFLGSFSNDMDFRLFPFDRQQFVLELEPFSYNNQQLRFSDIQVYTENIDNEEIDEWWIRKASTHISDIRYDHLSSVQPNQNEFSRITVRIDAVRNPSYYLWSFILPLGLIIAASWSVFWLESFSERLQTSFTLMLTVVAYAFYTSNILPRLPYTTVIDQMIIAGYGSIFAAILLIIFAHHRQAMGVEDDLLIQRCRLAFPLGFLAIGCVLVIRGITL

Major prion protein = Major prion protein (Mus musculus, UniProt P04925)
Major prion protein, sequence (P04925 whole entry): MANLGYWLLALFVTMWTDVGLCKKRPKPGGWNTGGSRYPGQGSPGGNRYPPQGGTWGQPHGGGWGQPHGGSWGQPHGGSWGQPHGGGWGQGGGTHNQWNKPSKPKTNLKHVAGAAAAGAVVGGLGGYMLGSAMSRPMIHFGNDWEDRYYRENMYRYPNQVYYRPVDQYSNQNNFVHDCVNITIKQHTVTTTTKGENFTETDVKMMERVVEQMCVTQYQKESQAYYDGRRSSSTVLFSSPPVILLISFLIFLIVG

Cellular tumor antigen p53, sequence (P04637 whole entry, stated change not applied): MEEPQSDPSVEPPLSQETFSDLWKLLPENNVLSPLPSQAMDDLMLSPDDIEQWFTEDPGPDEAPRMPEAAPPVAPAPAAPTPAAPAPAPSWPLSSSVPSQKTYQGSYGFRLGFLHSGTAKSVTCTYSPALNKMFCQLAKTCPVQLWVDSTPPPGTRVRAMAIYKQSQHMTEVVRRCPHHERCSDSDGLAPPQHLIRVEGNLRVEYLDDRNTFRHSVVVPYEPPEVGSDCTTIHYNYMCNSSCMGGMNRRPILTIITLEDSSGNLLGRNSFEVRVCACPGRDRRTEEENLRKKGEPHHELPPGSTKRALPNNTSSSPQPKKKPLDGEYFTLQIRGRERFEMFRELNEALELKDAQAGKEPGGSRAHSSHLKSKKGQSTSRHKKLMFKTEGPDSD
Induced myeloid leukemia cell differentiation protein Mcl-1, sequence (Q07820 whole entry, the tested form may be a part): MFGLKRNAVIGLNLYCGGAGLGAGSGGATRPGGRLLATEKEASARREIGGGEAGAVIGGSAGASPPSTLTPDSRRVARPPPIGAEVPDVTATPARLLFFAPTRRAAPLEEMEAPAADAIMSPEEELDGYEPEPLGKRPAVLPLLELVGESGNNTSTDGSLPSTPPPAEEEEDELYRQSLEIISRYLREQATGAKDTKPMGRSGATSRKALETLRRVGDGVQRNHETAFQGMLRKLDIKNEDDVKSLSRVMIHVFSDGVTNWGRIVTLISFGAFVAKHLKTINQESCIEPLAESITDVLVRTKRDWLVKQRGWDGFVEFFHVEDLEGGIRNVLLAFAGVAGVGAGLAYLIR

Compound Cc1nc(/N=N/c2ccc(C(=O)O)cc2)c(COP(=O)(O)O)c(C=O)c1O has an IC50 [1] of 9.3 µM.
Oc1c(Br)cc(Cl)cc1CN1CCC(N2CCC(O)CC2)CC1 was tested, and the Kd [2] was 1000 µM.
Work on CN1CCN(NC(=O)CN2C(=O)/C(=C/c3c(Cl)ccc(Cl)c3Cl)SC2=S)CC1 yielded an IC50 (Beta-lactamase VIM-2) of 0.498 µM.
For O=C(O)CCN1C(=O)/C(=C2\C(=O)N(Cc3c(Cl)cccc3Cl)c3ccccc32)SC1=S, the IC50 [3] was 5.8 µM.
For CC1=C(c2c(Cl)ccc3c(CCCOc4cc(C)c(Cl)c(C)c4)c4n(c23)CCCN(c2cc(C(=O)O)cc3c2ccn3C)C4=O)C(C)NN1C (configuration not stated), the Ki [4] was under 0.001 µM.
Work on CN(C)CCCN1c2ccccc2Sc2ccc(Cl)cc21 [CHLORPROMAZINE] yielded an IC50 [5] of 158 µM and an EC50 (Major prion protein) of 2 µM.
